Measurements published in patent US20210330611A1, “THERAPY FOR NEUROLOGICAL DISEASES/DISORDERS” (priority 2020, published 2021).
Counter-ions that a name gives are not always drawn. Like-named read-outs stand apart in the source and are kept apart here.

What was measured:
[1] = tested on: fibrin-induced microglia activation; assay: Image-based assay of fibrin-induced microglia activation (HTS and dose response); format: cell-based, rat; details: for inhibition at 10 µM: Rattus norvegicus, Microglia, read-out: Fibrin % inhibition
[2] = tested on: LPS-induced microglia activation; assay: Image-based assay of LPS-induced microglia activation (HTS and dose response); format: cell-based, rat; details: for inhibition at 10 µM: Rattus norvegicus, Microglia, read-out: LPS % inhibition
[3] = tested on: fibrin- and LPS-induced microglia activation; assay: cells; format: cell-based, rat
primary rat microglia [4] = tested on: primary rat microglia;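 on Fibrin % cell toxicity: share of dead cells sized under 150 µm2 at 10 µM in fibrin-stimulated microglia HTS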
primary rat microglia [5] = tested on: primary rat microglia; remark: listed apart in the source;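 on Fibrin % cell toxicity: share of dead cells sized under 150 µm2 at 10 µM in fibrin-stimulated microglia HTS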
[6] = primary microglia HTS, 10 μM, fibrin-stimulated, cell size >800 μm^2 as marker of activation
[7] = primary microglia HTS, 10 μM, LPS-stimulated, cell size >800 μm^2 as marker of activation
[8] = HTS of 1907 compounds, quadrant by fibrin and LPS inhibition
[9] = primary microglia HTS, fibrin stimulation, compounds at 10 μM
[10] = primary microglia HTS, LPS stimulation, compounds at 10 μM
[11] = classification by fibrin and LPS inhibition, HTS at 10 μM
[12] = primary microglia HTS, fibrin stimulation, increased cell size (>800 μm^2) as marker of activation
[13] = 48 h, primary microglia HTS, LPS stimulation, increased cell size (>800 μm^2) as marker of activation
[14] = quadrant by fibrin and LPS inhibition in HTS of 1907 compounds
[15] = primary microglia HTS, fibrin stimulation, cell size >800 μm2 as marker of activation
[16] = classification by fibrin and LPS inhibition in HTS
[17] = quadrant by fibrin and LPS inhibition, HTS at 10 μM

Row | Compound | Fibrin % cell toxicity (primary rat microglia [4]; rat) | LPS % cell toxicity (primary rat microglia [5]; rat) | inhibition at 10 µM [1, 9] | inhibition at 10 µM [2, 10] | other results
1 | [H]/N=C(/N)N[C@H]1[C@H](O)[C@@H](O)[C@H](O[C@@H]2O[C@@H](C)[C@](O)(C=O)[C@H]2O[C@@H]2O[C@@H](CO)[C@H](O)[C@@H](O)[C@@H]2NC)[C@@H](N/C(N)=N\[H])[C@@H]1O [Streptomycin Sulfate] | 0% | 0% |  |  | inhibition at 10 µM [1, 6]: -46%; inhibition at 10 µM [2, 7]: 13%; Quadrant (FIG. 5b) [3, 8]: Q4
2 | CC(C)Cc1ccc([C@H](C)C(=O)O)cc1 [Dexibuprofen] | 1% | 0% | -3% | 13% | Quadrant (FIG. 5b) [3, 11]: Q4
3 | Modaline Sulfate |  |  |  |  | Fibrin % inhibition [1]: −9%; LPS % inhibition [2]: 25%; Quadrant (FIG. 5b) [3]: Q4; Fibrin % cell toxicity (primary rat microglia [4]): 1%; LPS % cell toxicity (primary rat microglia [5]): 0%
4 | CCOc1ccc(NC(=O)CC(C)O)cc1 (stereo not shown) [Bucetin] | 0% | 0% |  |  | inhibition at 10 µM ([1]; primary HTS, 10 μM, fibrin-stimulated primary microglia): -25%; inhibition at 10 µM ([2]; primary HTS, 10 μM, LPS-stimulated primary microglia): 12%; Quadrant (FIG. 5b) ([3]; primary HTS, 10 μM): Q4
5 | CCn1cc(C(=O)O)c(=O)c2cc3c(cc21)OCO3 [Oxolinic Acid] | 0% | 1% |  |  | inhibition at 10 µM [1, 12]: 7%; inhibition at 10 µM [2, 13]: 13%; Quadrant (FIG. 5b) [3, 14]: Q4
6 | CN(C)CCOc1ccc(/C(=C(/CCCl)c2ccccc2)c2ccccc2)cc1 [Toremifene] | 1% | 0% |  |  | inhibition at 10 µM [1]: 14%; inhibition at 10 µM [2]: 19%; Quadrant (FIG. 5b) [3]: Q4
7 | CC12CCC(CC1)C(C)(C)O2 [Eucalyptol] | 0% | 0% | -15% | 9% | Quadrant (FIG. 5b) [3, 11]: Q4
8 | CC[N+](C)(C)Cc1ccccc1Br [Bretylium] | 0% | 0% |  |  | inhibition at 10 µM [1]: -26%; inhibition at 10 µM [2]: -9%; Quadrant (FIG. 5b) [3]: Q4
9 | CC1=C(/C=C/C(C)=C/C=C/C(C)=C/C(=O)O)C(C)(C)CCC1 [Tretinon, Tretinoin] |  |  |  |  | Fibrin % inhibition [1, 6]: 27%; LPS % inhibition [2, 7]: 34%; Quadrant (FIG. 5b) [3, 8]: Q4; Fibrin % cell toxicity (primary rat microglia [4]): 1%; LPS % cell toxicity (primary rat microglia [5]): 1%
10 | CC(COc1ccccc1)N(CCCl)Cc1ccccc1 (stereo not shown) [Phenoxybenzamine] | 1% | 0% |  |  | inhibition at 10 µM [1, 15]: 8%; inhibition at 10 µM ([2]; 48 h): -5%; Quadrant (FIG. 5b) [3, 16]: Q4
11 | Oc1ncnc2[nH]ncc12 [Allopurinol] | 1% | 0% | -17% | 16% | Quadrant (FIG. 5b) [3, 17]: Q4
12 | CC(C)(C)NCC(O)c1ccc(O)c(CO)c1 (stereo not shown) [Salbutamol] | 1% | 0% |  |  | inhibition at 10 µM [1, 15]: 25%; inhibition at 10 µM ([2]; 48 h): 25%; Quadrant (FIG. 5b) [3, 16]: Q4
13 | Cl.N=C(N)NCCC[C@H](N)C(=O)O [Arginine Hydrochloride] | 0% | 2% | 9% | 42% | Quadrant (FIG. 5b) [3, 17]: Q4
14 | CCN(CC)C(=S)SSC(=S)N(CC)CC [Disulfiram] | 90% | 75% |  |  | inhibition at 10 µM [1, 12]: 114%; inhibition at 10 µM [2, 13]: 131%; Quadrant (FIG. 5b) [3, 14]: Q2
15 | CC(=O)OCC[N+](C)(C)C [Acetylcholine] | 0% | 0% | -39% | 9% | Quadrant (FIG. 5b) [3, 17]: Q4
16 | CN(C)CC[C@@H](c1ccc(Cl)cc1)c1ccccn1 [Dexchlorpheniramine] | 1% | 0% | -8% | 11% | Quadrant (FIG. 5b) [3]: Q4
17 | CN(C)/N=N/c1[nH]cnc1C(N)=O [Dacarbazine] | 0% | 0% | -13% | 17% | Quadrant (FIG. 5b) [3, 11]: Q4
